{"source": "patent US20100041751A1", "about": "“Method to Reduce Oxidative Damage and Improve Mitochondrial Efficiency” (ACCERA, INC., priority 2005, published 2010)", "key": {"[1]": {"settings": "cited from earlier work; for amount that will dissolve in water: in 1 liter of water at 20° C."}, "[2]": {"test": "Serum beta-hydroxybutyrate (BHB) levels in aged beagle dogs fed MCTs", "format": "in vivo", "method": "Reducing oxidative damage and improving mitochondrial efficiency. Two groups of aged beagle dogs were tested for the effects of feeding MCT on oxidative damage and mitochondrial efficiency. The first group was maintained on MCTs (2 g/kg/day) and the second group on placebo control over a 2-month period. Blood samples were taken over 5 time points to monitor levels of the ketone body, beta-hydroxybutyrate (BHB). After two months of treatment, the dogs were anaesthetized and brain biopsies were collected for mitochondrial analysis. The animals were then euthanized and brain tissue was harvested for further analysis of mitochondrial function and protein levels.\nThe eight subjects (8-11 years) were divided into two equal sized groups, matched for age and sex. The first group was administered 2 g/kg/day of MCTs, which was added to their maintenance diet, and the other received only the maintenance diet. The test substance was manually added to the dog's normal chow and introduced over three days, such that one-third of the maximum dose was administered on the first day, two-thirds on the second day and the full dose on the third day. The subjects were maintained on the test substance over a two-month period. Blood samples for BHB analysis were taken on: Baseline (Day 0), Day 4, Day 14, Day 28, Biopsy/Euthanasia (Day 56 or 57).\nBiopsy procedure. Approximately 30 minutes prior to surgery, a blood sample was taken for BHB analysis and then the animals were pre-medicated with acepromazine. Animals were induced using isoflurane (inhaled) via a facemask. The animal then were intubated and maintained in a deep plane of anaesthesia using isoflurane. […]\nSerum BHB levels were assessed at five different time-points: (1) prior to treatment onset (T0), (2) after 4 days of treatment (T1), (3) after 14 days of treatment (T2), (4) after 28 days of treatment (T3), and (5) on the biopsy date (T4). The levels were analyzed using a repeated-measures ANOVA with time-point (T0 vs. T1 vs. T2 vs. T3 vs. T4) as a within-subject variable and group (control vs. MCT) as a between-subject variable."}, "brain mitochondria": {"tested_on": "brain mitochondria", "test": "Respiration assays on brain mitochondria isolated from biopsies of MCT-fed aged beagle dogs", "format": "in vivo", "settings": "for respiratory control ratio (RCR), coupling of respiration with ATP production: state III / state IV respiration, treatment vs control", "method": "On the day of biopsy, the treatment group was administered 2 g/kg of MCTs and the control group was administered an isocaloric solution of sucrose by an oral-gastric tube. Approximately two hours after dosing, the animals were anaesthetized and biopsies were taken from the frontal and parietal lobes. Immediately after removing the biopsy tissue, the animals were euthanized with an injectable euthanizing agent.\nUsing the biopsied material, brain mitochondria were isolated and the following parameters were assayed in real-time:\nMitochondrial Assays. Mitochondria were isolated using differential centrifugation and released from synaptosomes using a nitrogen cell disrupter (1000 psi for 5 minutes).\nThe respiration assays were conducted using standard polarography in a sealed, thermostated, stirred chamber containing a Clark-type electrode, which measures oxygen within the chamber. The system was calibrated with oxygen-saturated water, to standardize the quantification of oxygen consumption. The assays were conducted at 37° C.\nOnce the mitochondria were inserted into the Oxytherm, complex I driven respiration (state II respiration) was measured by adding pyruvate and malate (2.5 and 5 mM). Subsequently, 150 μM ADP was added to induce state III respiration, which measured the rate of active respiration. Oligomycin was added to inhibit ATP synthase and put the mitochondria into state IV respiration. To assess UCP activity, free fatty acids were added. FCCP then was added to completely uncouple the mitochondria by depolarizing the membrane potential, which caused maximum electron transport activity and maximum oxygen consumption. Finally, rotenone was added to inhibit complex I electron transport and succinate was added to measure maximum complex II-driven electron transport and oxygen consumption (complex II-driven respiration). The respiratory control ratio (RCR) was tabulated by dividing state III respiration rates by state IV respiration rates.\nThe respiration rates that were tabulated on-site were analyzed using repeated-measures ANOVAs. For each measure, brain region (frontal vs. parietal) was the within-subject variable and group (control vs. MCT) was the between-subject variable."}, "[3]": {"tested_on": "brain tissue fractions (mitochondrial, P1, cytosolic)", "test": "Markers of oxidative damage in brain fractions of MCT-fed aged beagle dogs", "format": "in vivo", "settings": "MCT vs control", "method": "The remaining mitochondria were stored in 10% DMSO at −80° C. and assayed for UCP isoforms by western blot and quantification of oxidative damage in the mitochondrial, P1 and cytosolic fractions. Mitochondria from the biopsied tissue were frozen and analyzed for oxidative damage using markers of peroxynitrite, lipid peroxidation and 3-nitrotyrosine. Markers of Oxidative Damage. The markers of oxidative damage were analyzed using a repeated-measures ANOVA with region (frontal vs. parietal) and fraction (mitochondrial vs. P1 vs. cytosolic) as the within-subject variables and group (control vs. MCT) as the between-subject variable."}, "MPTP treated mice": {"tested_on": "MPTP treated mice", "test": "MPTP mouse model of Parkinson's disease", "format": "in vivo, C57BL mice", "experimental": "8- to 10-week-old male C57BL mice will be divided into four groups: control, MPTP treated plus dextrose, and MPTP treated plus MCT. In dextrose treated pups, 0.5 g/kg of dextrose will be administered by oral gavage 2 to 4 hours before MPTP treatment. In MCT treated pups, 0.5 g/kg of MCTs will be administered by oral gavage 2 to 4 hours before MPTP treatment. Each mouse will then be randomly assigned to receive four intraperitoneal injections of either MPTP (18 mg/kg of free base in saline) or saline at 2-hour intervals. Mice will subsequently be tested for motor performance on a rotarod. The rotarod will consist of four rotating rods of 3 cm diameter in separated compartments. Seven days after MPTP or saline injections the mice will be first pretrained three times (1 hour apart) using an accelerating mode. After the training sessions, the time on the rod will be recorded for successive rotational speeds, and the overall rod performance (ORP) for each mouse calculated.\nSeven days after the last MPTP injection, mice will be killed and their brain tissue processed for immunohistochemical studies to examine levels of oxidative stress and effects of MPTP treatment. Cell fractions from the biopsied tissue will be frozen and analyzed for oxidative damage using markers of peroxynitrite, lipid peroxidation and 3-nitrotyrosine. […] In addition mitochondria will be isolated from each group and examined for mitochondrial efficiency."}}, "note": "Entries after “also recorded” stand apart in the source; their conditions may differ. Read-outs that look alike come from different tables or passages of the source."}
{"smiles": "CCCCCC(=O)O", "note": "[Caproic, caproic acid]", "values": [{"measurement": "Solubility", "setting": "[1]", "value": "9.7 grams of acid per liter"}, {"measurement": "amount that will dissolve in water", "setting": "[1]", "value": 9.7, "unit": "grams"}]}
{"smiles": "CCCCCCCCCCCC(=O)O", "note": "[Lauric]", "values": [{"measurement": "Solubility", "setting": "[1]; water at 20° C.", "value": "0.055 grams of acid per liter"}]}
{"smiles": "CCCCCCCC(=O)OCC(COC(=O)CCCCCCC)OC(=O)CCCCCCC", "note": "[MCTs, tri-C8:0 medium chain triglycerides]", "values": [{"measurement": "levels of serum BHB", "setting": "[2]; aged beagle dogs, MCTs 2 g/kg/day for 2 months vs control", "value": "increased levels of serum BHB"}, {"measurement": "Serum BHB levels at T4", "setting": "[2]; biopsy date (Day 56 or 57), MCT vs control, p=0.012", "value": "significantly higher"}, {"measurement": "Serum BHB levels at T3", "setting": "[2]; day 28 of treatment, MCT vs control, p=0.041", "value": "significantly higher"}, {"measurement": "State III respiration", "setting": "brain mitochondria; parietal and frontal cortices vs control, group effect p=0.008", "value": "more oxygen consumption per minute than the control group"}, {"measurement": "State IV respiration", "setting": "brain mitochondria; parietal and frontal cortices vs control, marginally significant p=0.067", "value": "slightly more oxygen consumption per minute than the control group"}, {"measurement": "Uncoupling Protein (UCP) activity", "setting": "brain mitochondria; parietal and frontal cortices vs control, marginally significant p=0.086", "value": "consumed more oxygen per minute than the control animals"}, {"measurement": "improvement of mitochondrial function by brain region", "setting": "brain mitochondria; parietal cortex vs frontal cortex", "value": "more effective at improving mitochondrial function in the parietal cortex than the frontal cortex"}, {"measurement": "State II respiration", "setting": "brain mitochondria; parietal cortex, oxygen consumption per minute per mg of tissue vs control, p=0.010", "value": "significantly less oxygen consumption"}, {"measurement": "respiratory control ratio (RCR), coupling of respiration with ATP production", "setting": "brain mitochondria", "value": "better coupling of respiration with ATP formation"}, {"measurement": "respiratory control ratio (RCR), coupling of respiration with ATP production", "setting": "brain mitochondria; listed as MCT", "value": "better coupled to ATP production"}, {"measurement": "Complex I-driven respiration (maximum electron transport capacity)", "setting": "brain mitochondria; vs control, group effect p=0.002", "value": "larger maximum electron transport activity than the control group"}, {"measurement": "Complex II-driven respiration", "setting": "brain mitochondria; vs control, region x group interaction p=0.047, listed as MCT", "value": "consumed more oxygen per minute than the control in the parietal cortex; also recorded: no difference"}, {"measurement": "Lipid oxidation, effect of group", "setting": "[3]; frontal and parietal, mitochondrial, P1 and cytosolic fractions", "value": "no additional significant or marginally significant effects"}, {"measurement": "signs of oxidative damage", "setting": "[3]; peroxynitrite (protein oxidation), lipid oxidation and 3-nitrotyrosine", "value": "decreased signs of oxidative damage; also recorded: decrease oxidative damage"}, {"measurement": "motor performance on rotarod", "setting": "MPTP treated mice; 0.5 g/kg MCTs oral gavage 2 to 4 hours before MPTP", "value": "lessen the decline in motor performance"}, {"measurement": "signs of oxidative damage", "setting": "MPTP treated mice; brain tissue seven days after last MPTP injection", "value": "fewer signs of oxidative damage"}, {"measurement": "mitochondrial efficiency", "setting": "MPTP treated mice; isolated mitochondria", "value": "improved mitochondrial efficiency"}]}
{"smiles": "CCCCCCCCCCCCCC(=O)O", "note": "[Myristic]", "values": [{"measurement": "Solubility", "setting": "[1]; water at 20° C.", "value": "0.02 grams of acid per liter"}]}
{"smiles": "CCCCCCCCCCCCCCCC(=O)O", "note": "[Palmitic, palmitic acid]", "values": [{"measurement": "amount that will dissolve in water", "setting": "[1]", "value": 0.007, "unit": "grams"}]}
